Here are results for 1 compound from patent publication EP4635966A1, “SYNTHETIC VARIANTS OF THE GANGLIOSIDE NGCGM3 AND USE THEREOF IN CANCER TREATMENT” (Centro de Inmunologia Molecular, priority 2022, dated 2024).

Assay [1] relates to EL-4 thymoma cells. As to the kind of experiment: EL-4 hepatic metastatic spread model (liver weight). The assay is classed as in vivo, C57BL/6 mice. Here is the method: Syngeneic C57BL/6 mice were inoculated intravenously through the tail vein with 2x10^5 EL-4 thymoma cells. Mice were randomized and distributed into groups of 7-9 animals. Experimental groups received intraperitoneal treatments with 200µg of synthetic and natural variants of NGcGM3 or vehicle (5.6% sucrose solution, 0.75% L-histidine and 0.5% Tween20) on days 1, 5 and 9. Animals were sacrificed 12-13 days after tumor inoculation, livers were removed and weighed to determine the level of hepatic metastatic spread. The liver weight of healthy animals of the same age and batch was used as a control.
Syngeneic C57BL/6 mice were inoculated intravenously through the tail vein with 2x10^5 EL-4 thymoma cells; mice were randomized and distributed into groups of 7-9 animals. Experimental groups received intraperitoneal treatments with 10-30 µg of nanoparticles of NGcGM3 d18:1-C24:1, NGcGM3 d18:1-C18:0 and natural NGcGM3 with OMPC of N. meningitidis on days 1, 5 and 9 or Tris/HCl solution (Placebo). Animals were sacrificed 12-13 days after tumor inoculation. To determine the level of liver metastatic spread, their livers were removed and weighed.
Syngeneic C57BL/6 mice were inoculated intravenously through the tail vein with 2x10^5 EL-4 thymoma cells; mice were randomized and distributed into groups of 7-9 animals. On the day following tumor inoculation, 6x10^5 bmDC, previously cultured for 16 hours with vehicle (DMSO 0.1%), NGcGM3 d18:1-C24:1 ganglioside (10 µg/ml) or NGcGM3 extracted from natural source (10 µg/ml) were administered in a single dose, intravenously. Cells were extensively washed with serum-free RPMI-1640 medium to remove excess of lipids before transfer. Animals were sacrificed 12-13 days after tumor inoculation, livers were collected and the level of hepatic metastatic spread was determined by weigh. Livers from healthy mice of the same age and batch were used as a reference. […] Clearly, the transfer of bmDC pulsed with NGcGM3 d18:1-C24:1, induce a significant reduction of EL-4 liver metastasis, compared to the placebo group, in which empty dendritic cells were transferred. […], the transfer of bmDC incubated with ganglioside extracted from a natural source was ineffective. (equal letters p>0.05, different letters p<0.05, ANOVA and Tukey tests). […]
To maintain the depletion of the populations of interest throughout the duration of the experiment, equal doses of depleting antibodies were administered on days 4 and 11 after tumor inoculation. Animals were sacrificed 12-13 days after tumor inoculation, livers were removed and the level of hepatic metastatic spread was determined by weigh. […]

The test system of assay [2] is EL-4 thymoma cells. As to the kind of experiment: Survival of EL-4 tumor-bearing mice. The following applies: 200 µg i.p. on days 1, 5 and 9; p=0.0005 vs placebo. The assay is classed as in vivo, C57BL/6 mice.
Description: Syngeneic C57BL/6 mice were inoculated intravenously through the tail vein with 2x10^5 EL-4 thymoma cells (ATCC TIB-39); mice were randomized and distributed into groups of 7-9 animals. Experimental groups received intraperitoneal treatments with 200 µg of ganglioside variants NGcGM3 d18:1-C24:1 and NGcGM3 from natural source or vehicle (5.6% sucrose solution, 0.75% L-histidine and 0.5% Tween20) on days 1, 5 and 9. The animals were monitored and sacrificed if they presented any sign or symptom that affected their ability to ingest food and water or compromised their general state of health, according to veterinary criteria.
Syngeneic C57BL/6 mice were inoculated intravenously through the tail vein with 2x10^5 EL-4 thymoma cells; mice were randomized and distributed into groups of 7-9 animals. On the day following tumor inoculation, 6x10^5 bmDC previously cultured for 16 hours with vehicle (DMSO 0.1%), NGcGM3 d18:1-C24:1 ganglioside (10 µg/ml) or the ganglioside extracted from a natural source (10 µg/ml) were administered in a single dose, intravenously. Cells were washed extensively with serum-free RPMI-1640 medium to remove excess of lipids before transfer. Mice were monitored for signs or symptoms that affected their ability to ingest food and water or compromised their general health status, according to veterinary criteria.

As to `CCCCCCCCC=CCCCCCCCCCCCCCC(=O)NC(COC1OC(CO)C(OC2OC(CO)C(O)C(OC3(C(=O)O)CC(O)C(NC(=O)CO)C(C(O)C(O)CO)O3)C2O)C(O)C1O)C(O)C=CCCCCCCCCCCCCC` [NGcGM3 d18:1-C24:1, O-[3,5-didesoxy-5-hydroxyacetamido-D-glycero-α-D-galacto-2-nonupyranosyl-(2→3)-O-(β-D-galactopyranosyl)-(1→4)-β-D-glucopyranosyl-(1→1)-(2R,3S,4E)-2-tetracos-15-enamido-4-octadecene-1,3-diol], in the assay on EL-4 thymoma cells [1] (2x10^5 EL-4 i.v., 200 µg i.p. on days 1, 5 and 9, livers weighed 12-13 days after inoculation, Figure 2), the “antimetastatic effect (liver weight, hepatic metastatic spread)” value is recorded as “statistically significant antimetastatic effect”. The “anti-metastatic effect (liver weight), NK and NKT cell populations not affected” value in the assay on EL-4 thymoma cells [1] (Example 18, 200 µg i.p. on days 1, 5 and 9 + PBS) is given as “is present”. Further, the “anti-metastatic effect (liver weight) after depletion of NK and NKT cells” value in the assay with EL-4 thymoma cells [1] (Example 18, 200 µg i.p. on days 1, 5 and 9 + anti-NK1.1 Mab, Figure 18a) is on record as “abolishes the aforementioned anti-tumor effect”. In addition, the “anti-metastatic effect (liver weight) after depletion of NK cells only” value in the assay with EL-4 thymoma cells [1] (Example 18, 200 µg i.p. on days 1, 5 and 9 + anti-asialoGM1 antibody, Figure 18b) was “the antitumor effect is maintained”. Further, the “survival of EL-4 tumor-bearing animals” value in the assay on EL-4 thymoma cells [2] was “significantly increased the survival”.
